# Results reported in paper PMC9736855, “Discovery of 3-Amino-1H-pyrazole-Based Kinase Inhibitors to Illuminate the Understudied PCTAIRE Family” (International Journal of Molecular Sciences, 2022).
# Several values for one entry are separate records, joined by “and”; a condition that tells them apart may be missing. Identical values can stand only once.
# How the values were obtained:
# [1] = target: T1, CAMK2B (Homo sapiens, UniProt Q13554); test: DSF; assay type: binding
# T1 construct: purchased in-house DSF panel (SGC Frankfurt)
# T1 sequence (Q13554 11-303): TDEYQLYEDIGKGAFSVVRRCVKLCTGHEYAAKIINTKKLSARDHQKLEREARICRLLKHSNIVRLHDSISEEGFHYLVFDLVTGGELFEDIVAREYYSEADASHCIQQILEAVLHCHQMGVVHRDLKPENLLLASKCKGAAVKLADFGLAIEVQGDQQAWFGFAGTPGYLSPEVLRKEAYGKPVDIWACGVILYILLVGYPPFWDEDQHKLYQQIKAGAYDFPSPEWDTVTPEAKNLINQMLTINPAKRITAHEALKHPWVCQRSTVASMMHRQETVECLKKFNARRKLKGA
# Experimental: (§1) Recombinant protein kinase domains with a concentration of 2 μM were mixed with a 10 μM compound solution in DMSO, 20 mM HEPES, pH 7.5, and 500 mM NaCl. SYPRO Orange (5000×, Invitrogen) was added as a fluorescence probe (1 µl per mL). Subsequently, temperature-dependent protein unfolding profiles were measured, using the QuantStudio™ 5 realtime PCR machine (Thermo Fisher, Waltham, MA, USA). […] The temperature was raised with a step rate of 3 °C per minute. Data points were analyzed with the internal software (Thermal Shift SoftwareTM Version 1.4, Thermo Fisher) using the Boltzmann equation to determine the inflection point of the transition curve [56]. Differences in melting temperature are given as ΔTm values in °C. Measurements were performed in duplicates.
# [2] = target: T2, MAP2K4 (Homo sapiens, UniProt P45985); test: DSF; assay type: binding
# T2 construct: purchased in-house DSF panel (SGC Frankfurt)
# T2 sequence (P45985 102-367): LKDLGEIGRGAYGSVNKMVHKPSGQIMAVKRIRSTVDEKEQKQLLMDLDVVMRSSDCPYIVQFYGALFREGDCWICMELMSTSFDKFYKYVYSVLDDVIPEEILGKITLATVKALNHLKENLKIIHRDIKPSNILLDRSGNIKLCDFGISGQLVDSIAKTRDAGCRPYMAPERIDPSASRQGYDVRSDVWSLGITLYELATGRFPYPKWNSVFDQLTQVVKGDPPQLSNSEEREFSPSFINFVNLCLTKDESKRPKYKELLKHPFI
# Experimental: as §1
# [3] = target: T3, TTK (Homo sapiens, UniProt P33981); test: DSF; assay type: binding;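 note: compound tested at 10 µM with 2 µM protein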
# T3 construct: purchased in-house DSF panel (SGC Frankfurt)
# T3 sequence (P33981 519-808): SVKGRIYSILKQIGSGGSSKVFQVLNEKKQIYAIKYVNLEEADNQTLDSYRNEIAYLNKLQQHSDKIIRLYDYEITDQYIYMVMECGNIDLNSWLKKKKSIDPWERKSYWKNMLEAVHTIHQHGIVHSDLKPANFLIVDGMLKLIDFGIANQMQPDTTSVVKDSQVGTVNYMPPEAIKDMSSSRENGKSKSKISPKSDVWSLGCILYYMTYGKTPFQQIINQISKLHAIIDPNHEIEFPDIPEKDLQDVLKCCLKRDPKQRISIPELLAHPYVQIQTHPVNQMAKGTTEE
# Experimental: as §1
# [4] = target: T4, CAMKK2 (Homo sapiens, UniProt Q96RR4); test: DSF; assay type: binding
# T4 construct: purchased in-house DSF panel (SGC Frankfurt)
# T4 sequence (Q96RR4 161-449): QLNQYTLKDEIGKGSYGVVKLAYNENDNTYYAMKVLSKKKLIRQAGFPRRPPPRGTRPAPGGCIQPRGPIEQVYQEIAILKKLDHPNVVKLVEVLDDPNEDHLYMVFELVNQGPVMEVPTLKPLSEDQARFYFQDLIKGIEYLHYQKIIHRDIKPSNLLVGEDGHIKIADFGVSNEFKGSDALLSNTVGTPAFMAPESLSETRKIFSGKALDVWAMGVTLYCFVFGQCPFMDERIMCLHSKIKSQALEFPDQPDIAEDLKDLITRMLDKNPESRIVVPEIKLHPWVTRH
# Experimental: as §1
# [5] = target: T5, CLK1 (Homo sapiens, UniProt P49759); test: DSF; assay type: binding;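 note: compound tested at 10 µM with 2 µM protein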
# T5 construct: purchased in-house DSF panel (SGC Frankfurt)
# T5 sequence (P49759 148-484): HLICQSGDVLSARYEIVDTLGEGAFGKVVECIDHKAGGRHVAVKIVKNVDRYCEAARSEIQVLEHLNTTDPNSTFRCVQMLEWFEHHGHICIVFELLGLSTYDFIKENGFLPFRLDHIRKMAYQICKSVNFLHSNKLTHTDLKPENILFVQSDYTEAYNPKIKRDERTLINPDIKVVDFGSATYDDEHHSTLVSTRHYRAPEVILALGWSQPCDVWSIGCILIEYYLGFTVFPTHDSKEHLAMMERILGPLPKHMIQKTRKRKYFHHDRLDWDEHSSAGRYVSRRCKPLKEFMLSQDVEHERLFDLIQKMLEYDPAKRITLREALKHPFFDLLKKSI
# Experimental: as §1
# [6] = system: RPS6KA1; test: DSF; assay type: binding;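 note: compound tested at 10 µM with 2 µM protein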
# Experimental: as §1
# [7] = target: T6, STK17B (Homo sapiens, UniProt O94768); test: DSF; assay type: binding
# T6 construct: purchased in-house DSF panel (SGC Frankfurt)
# T6 sequence (O94768 25-329): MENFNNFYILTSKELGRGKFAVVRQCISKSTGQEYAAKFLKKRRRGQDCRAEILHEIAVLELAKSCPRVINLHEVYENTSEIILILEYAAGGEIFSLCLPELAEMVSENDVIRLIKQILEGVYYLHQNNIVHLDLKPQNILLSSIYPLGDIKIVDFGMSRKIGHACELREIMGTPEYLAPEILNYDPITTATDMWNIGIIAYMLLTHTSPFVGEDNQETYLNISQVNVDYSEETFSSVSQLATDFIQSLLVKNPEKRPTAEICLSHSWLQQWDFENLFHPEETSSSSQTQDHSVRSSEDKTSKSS
# Experimental: as §1
# [8] = target: T7, PIM1 (Homo sapiens, UniProt P11309); test: DSF; assay type: binding
# T7 construct: purchased in-house DSF panel (SGC Frankfurt)
# T7 sequence (P11309 whole entry): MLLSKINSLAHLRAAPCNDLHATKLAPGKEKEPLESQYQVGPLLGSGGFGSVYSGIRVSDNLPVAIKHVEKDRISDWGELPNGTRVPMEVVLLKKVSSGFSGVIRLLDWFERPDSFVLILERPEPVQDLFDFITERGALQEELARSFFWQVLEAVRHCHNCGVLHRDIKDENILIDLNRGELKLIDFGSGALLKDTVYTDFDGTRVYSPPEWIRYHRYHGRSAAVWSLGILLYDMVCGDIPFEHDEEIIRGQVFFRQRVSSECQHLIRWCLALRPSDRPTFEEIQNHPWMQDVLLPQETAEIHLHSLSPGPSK
# Experimental: as §1
# [9] = system: in-house panel of 89–105 kinases; test: DSF selectivity screen; assay type: binding
# Source text: To investigate the selectivity profile of the different series, a differential scanning fluorimetry (DSF) assay was used. This assay offers a rapid and sensitive screening method that determines the denaturation temperature of a protein in absence and presence of a compound. This assay format measures the fluorescence of a dye, which depends on the folding state of the protein. The difference between the melting temperature (ΔTm) in the absence and presence of the compound represents the binding strength to the protein. We used an in-house panel of 89–105 kinases to screen all synthesized inhibitors (Tables S1–S3).
# Measurements were performed in duplicates.
# [10] = target: T8, MARK3 (Homo sapiens, UniProt P27448); test: DSF; assay type: binding
# T8 construct: purchased in-house DSF panel (SGC Frankfurt)
# T8 sequence (P27448 whole entry): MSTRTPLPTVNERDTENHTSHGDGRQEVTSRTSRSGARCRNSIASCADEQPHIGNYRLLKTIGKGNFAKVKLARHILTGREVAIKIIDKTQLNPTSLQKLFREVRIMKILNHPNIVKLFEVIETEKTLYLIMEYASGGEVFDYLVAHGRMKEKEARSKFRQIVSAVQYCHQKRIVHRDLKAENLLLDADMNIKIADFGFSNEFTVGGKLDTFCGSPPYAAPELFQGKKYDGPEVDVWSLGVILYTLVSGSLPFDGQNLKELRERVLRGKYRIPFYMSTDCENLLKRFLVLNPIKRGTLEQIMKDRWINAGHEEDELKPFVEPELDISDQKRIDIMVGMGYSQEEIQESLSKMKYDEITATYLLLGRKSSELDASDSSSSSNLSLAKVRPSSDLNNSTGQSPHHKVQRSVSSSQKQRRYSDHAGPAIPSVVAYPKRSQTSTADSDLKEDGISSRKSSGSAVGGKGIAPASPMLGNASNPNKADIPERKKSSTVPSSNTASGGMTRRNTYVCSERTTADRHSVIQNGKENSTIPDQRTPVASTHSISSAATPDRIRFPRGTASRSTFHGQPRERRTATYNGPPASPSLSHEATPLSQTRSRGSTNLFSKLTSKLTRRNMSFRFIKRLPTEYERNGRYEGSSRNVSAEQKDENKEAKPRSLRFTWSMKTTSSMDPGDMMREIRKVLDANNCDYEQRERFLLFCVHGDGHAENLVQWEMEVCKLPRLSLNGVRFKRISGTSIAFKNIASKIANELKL
# Experimental: as §1
# [11] = target: T9, EPHA2 (Homo sapiens, UniProt P29317); test: DSF; assay type: binding
# T9 construct: purchased in-house DSF panel (SGC Frankfurt)
# T9 sequence (P29317 596-900): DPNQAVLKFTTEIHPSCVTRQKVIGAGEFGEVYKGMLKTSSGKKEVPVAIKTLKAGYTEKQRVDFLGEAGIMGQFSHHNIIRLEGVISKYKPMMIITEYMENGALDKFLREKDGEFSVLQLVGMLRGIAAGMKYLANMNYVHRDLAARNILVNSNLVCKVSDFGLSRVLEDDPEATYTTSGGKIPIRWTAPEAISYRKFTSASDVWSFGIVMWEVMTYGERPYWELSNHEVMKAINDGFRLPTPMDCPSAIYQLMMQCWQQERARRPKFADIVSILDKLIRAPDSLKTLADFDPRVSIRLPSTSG
# Experimental: as §1
# [12] = target: T10, BRAF (Homo sapiens, UniProt P15056); test: DSF; assay type: binding
# T10 construct: purchased in-house DSF panel (SGC Frankfurt)
# T10 sequence (P15056 444-723): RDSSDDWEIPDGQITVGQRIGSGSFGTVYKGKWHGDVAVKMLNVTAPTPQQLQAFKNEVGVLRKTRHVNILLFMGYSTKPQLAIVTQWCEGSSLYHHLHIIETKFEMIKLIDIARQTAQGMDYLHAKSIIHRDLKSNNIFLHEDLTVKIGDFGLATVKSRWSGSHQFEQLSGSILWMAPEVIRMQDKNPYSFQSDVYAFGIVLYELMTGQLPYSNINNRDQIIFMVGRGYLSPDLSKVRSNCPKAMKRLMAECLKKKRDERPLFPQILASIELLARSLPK
# Experimental: as §1
# [13] = target: T11, CLK3 (Homo sapiens, UniProt P49761); test: DSF; assay type: binding
# T11 construct: purchased in-house DSF panel (SGC Frankfurt)
# T11 sequence (P49761 127-484): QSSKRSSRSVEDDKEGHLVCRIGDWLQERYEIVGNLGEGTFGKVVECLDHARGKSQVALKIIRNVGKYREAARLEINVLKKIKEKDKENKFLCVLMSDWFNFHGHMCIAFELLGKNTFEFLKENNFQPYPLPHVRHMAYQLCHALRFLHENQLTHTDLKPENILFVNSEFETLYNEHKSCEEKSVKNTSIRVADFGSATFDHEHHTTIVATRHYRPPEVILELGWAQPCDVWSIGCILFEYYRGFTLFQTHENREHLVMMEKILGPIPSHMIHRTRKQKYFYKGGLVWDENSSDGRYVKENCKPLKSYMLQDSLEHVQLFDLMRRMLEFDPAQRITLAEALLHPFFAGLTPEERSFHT
# Experimental: as §1
# [14] = system: CDK16 and GSK3; test: proteome-wide CETSA MS; assay type: cell-based; conditions: K562 cells, 30 µM, 60 min
# Experimental: To verify whether the substances also lead to stabilization of proteins in the cellular system, proteome-wide CETSA experiments were performed. Therefore, lead structure 1 and some compounds from the second series (21b, 21d, 21e, 21h, and 21i) were selected for this study (Figure 6, Figure S1). While the statistical significance is plotted on the Y-axis, the relative protein amount is shown on the X-axis. […] Based on excellent proteome-wide selectivity identifying CDK16 and GSK3 as the most prominently stabilized kinases, 21d and 21i were selected for further investigations. […] We therefore decided to proceed with a CDK16-specific cellular assay.
# Compressed CETSA MS assays, also known as PISA (Proteome Integral Stability Alteration assay), were performed as previously described by Chernobrovkin et. al., with some minor changes. K562 cells were obtained from ATCC. K562 cells were mixed with an equal volume of compound solution, final concentartion of 30 µM, in a buffer (20 mM HEPES, 138 mM NaCl, 5 mM KCl, 2 mM CaCl2, 1 mM MgCl2, pH 7.4). One percent and DMSO was used as a control. Cells were incubated at +37 °C for 60 min. The cell suspension was split into 12 aliquots which were heated at a different temperature between 44 and 66 °C for 3 min. After the heating, the cells were lysed through freeze–thawing them 3 times and the lysed aliquots were pooled together. Cell debris and aggregates were removed through centrifugation (20 min at 30.000× g).
Compound,ΔTm CAMK2B [1],ΔTm MAP2K4 [2],ΔTm TTK [3],ΔTm CAMKK2 [4],ΔTm CLK1 [5],ΔTm RPS6KA1 [6],ΔTm STK17B [7],ΔTm PIM1 [8],kinases beside CDK16 with DSF shift >5 °C (potential off-targets) [9],ΔTm MARK3 [10],ΔTm EPHA2 [11],ΔTm BRAF [12],ΔTm CLK3 [13],stabilization in CETSA MS [14],Kinases with shifts > 5°C ([9]; number of kinases of the DSF panel)
"CC(C)OC(=O)c1cc(Nc2ccnc(NCc3ccc(NC(=O)OC(C)(C)C)cc3)n2)n[nH]1 [42d, isopropyl 3-((2-((4-((tert-butoxycarbonyl)amino)benzyl)amino)pyrimidin-4-yl)amino)-1H-pyrazole-5-carboxylate]",-1.2 °C,0.4 °C,-0.1 °C,-0.6 °C,0.0 °C,-0.3 °C,-2.8 °C,0.2 °C,1–2 and 1,-0.4 °C,0.6 °C,0.4 °C,-0.4 °C,–,–
"N#CCc1ccc(Nc2nccc(Nc3cc(C4CC4)[nH]n3)n2)cc1 [compound 1, reference compound]",4.4 °C,10.0 °C,8.8 °C,12.0 °C,12.2 °C,5.1 °C,9.7 °C,3.3 °C,–,8.1 °C,8.4 °C,4.6 °C,11.3 °C,stabilization of CDK16 and GSK3,–
"COC(=O)c1cc(Nc2ccnc(NCCOCCNC(=O)OC(C)(C)C)n2)[nH]n1 [21d, methyl 5-((2-((2-(2-((tert-butoxycarbonyl)amino)ethoxy)ethyl)amino)pyrimidin-4-yl)amino)-1H-pyrazole-3-carboxylate]",0.2 °C,0.9 °C,1.6 °C,0.5 °C,1.8 °C,0.5 °C,1.6 °C,2.1 °C,–,2.5 °C,0.2 °C,0.9 °C,1.1 °C,stabilization of CDK16 and GSK3,–
"CC(C)(C)OC(=O)Nc1ccc(CNc2nccc(Nc3cc(C(=O)OC(C)(C)C)[nH]n3)n2)cc1 [43d, tert-butyl 3-((2-((4-((tert-butoxycarbonyl)amino)benzyl)amino)pyrimidin-4-yl)amino)-1H-pyrazole-5-carboxylate]",-0.5 °C,1.0 °C,-0.2 °C,0.1 °C,-0.5 °C,0.2 °C,-2.5 °C,-0.7 °C,1–2 and 2,-0.5 °C,1.3 °C,0.7 °C,0.0 °C,–,–
"COC(=O)c1cc(Nc2ccnc(NCc3ccc(NC(=O)OC(C)(C)C)cc3)n2)[nH]n1 [21i, methyl 5-((2-((4-((tert-butoxycarbonyl)amino)benzyl)amino)pyrimidin-4-yl)amino)-1H-pyrazole-3-carboxylate]",0.6 °C,2.4 °C,0.0 °C,1.1 °C,1.3 °C,1.0 °C,3.4 °C,-0.6 °C,–,1.5 °C,0.4 °C,1.0 °C,0.4 °C,stabilization of CDK16 and GSK3,4–9
